Reference: patent US20240398771A1, “TREATMENT OF SCLERODERMA AND RAYNAUD'S SYNDROME” (Aisa Pharma, Inc., priority 2023, published 2024)

Test system: participants with SSc-RP
Assay: Frequency of weekly symptomatic RP attacks (patient diary), Phase 2a Part A
Type: in vivo, human
Description: Part A—Double-blind, Placebo-controlled, Parallel-group, Dose selection, will assess the safety and efficacy of two doses of cilnidipine (10 mg and 20 mg), alone and in combination with tadalafil. A total of 36 participants will be randomized to one of six pre-specified treatment arms. See Example 3 for data obtained in this phase of the study thus far, on 11 participants.
Please refer to FIG. 1 for treatment arms in Part A of the study. Dosing lasted or will last for 12 (±2) days in which participants self-administered or will self-administer daily doses of assigned treatment in the morning. Each participant took or will take one capsule and one tablet to blind the active therapy being received.
The relevant metrics measured by this tool daily are: • Study medication • SSc-RP symptoms (Reporting an attack including duration of attack) • Severity of the attack considering all symptoms of the attack e.g. tingling, numbness, pain, color changes (VAS 0-10 cm scale) • Participant's location at the time of the attack (inside home/outside home) • Selecting symptoms experienced during the attack (tingling, numbness, pain, color changes, other) • Pain rating during the attack (11-point Likert scale) • The RCS based on how much difficulty participants had with Raynaud's today, how many attacks the participant had, and how long they lasted. Participants will also be asked to consider how much pain, numbness, or other symptoms the Raynaud's caused in fingers (including painful sores), and how much the Raynaud's alone affected the use of hands today (VAS 0-10 cm scale).
Percent change from baseline evaluation for frequency of weekly RP attacks were or will be used as the primary efficacy variable. The sponsor-developed participant-informed diary will be used to record data. Frequency of weekly RP attacks is defined as the total number of RP attacks divided by the number of days with available diary data within the last 7 days of each dosing period then multiplied by 7. Total number of RP attacks during the last 7 days of screening period divided by the number of days with available data then multiplied by 7 will be used as baseline for the analysis of all periods.
Percentage change={(weekly RP attacks for the last 7 days of each dosing period−Baseline weekly RP attacks)/Baseline weekly RP attacks}*100%.
Absolute change=weekly RP attacks for the last 7 days of each dosing period−Baseline weekly RP attacks
Percent change from baseline evaluation for frequency of weekly RP attacks was and will be the primary efficacy endpoint. Frequency of weekly RP attacks is defined as the total number of RP attacks divided by the number of days with available diary data within the last 7 days of each dosing period then multiplied by 7. Total number of RP attacks during the last 7 days of screening period divided by the number of days with available data then multiplied by 7 will be used as baseline for the analysis of all periods.
The following data was actually obtained in accordance with the protocol and plan delineated in Examples 1 and 2. The accompanying data involved 11 patients out of the planned 76 patient study. The study was done in patients with scleroderma (systemic sclerosis) who had relatively frequent Raynaud symptoms as they needed to average at least one attack per day during a screening period of up to two weeks. In this first phase of this double-blind placebo-controlled, prospective randomized study, patients were treated in parallel and after meeting study criteria were randomized to receive either placebo, cilnidipine 10 mg daily, cilnidipine 20 mg daily, tadalafil 5 mg daily, cilnidipine 10 mg plus 5 mg of tadalafil, or cilnidipine 20 mg plus 5 mg of tadalafil.

[1] = Table A-1, ITT Part A, last 7 days of dosing period
[2] = Table A-1, ITT Part A, last 7 days of dosing vs last 7 days of screening
[3] = Table A-2, excluding outliers, ITT Part A
[4] = Table A-2, excluding outliers, ITT Part A, last 7 days of dosing period
[5] = Table A-3 by baseline RCS, second sub-table (heading not given; RCS >5.0), ITT Part A
[6] = Table A-1, ITT Part A, last 7 days of dosing period, listed as Cilnidipine 10 mg
[7] = Table A-1, ITT Part A, last 7 days of dosing period, listed as Cilnidipine 20 mg
[8] = Table A-1, ITT Part A, last 7 days of dosing period, listed as Pooled Cilnidipine
[9] = Table A-1, ITT Part A, last 7 days of dosing vs last 7 days of screening, listed as Cilnidipine 10 mg
[10] = Table A-1, ITT Part A, last 7 days of dosing vs last 7 days of screening, listed as Cilnidipine 20 mg
[11] = Table A-1, ITT Part A, last 7 days of dosing vs last 7 days of screening, listed as Pooled Cilnidipine
[12] = Table A-2, excluding outliers, ITT Part A, last 7 days of dosing period, listed as Cilnidipine 10 mg
[13] = Table A-2, excluding outliers, ITT Part A, last 7 days of dosing period, listed as Cilnidipine 20 mg
[14] = Table A-2, excluding outliers, ITT Part A, last 7 days of dosing period, listed as Pooled Cilnidipine
[15] = Table A-3 by baseline RCS, first sub-table (RCS <5.0), ITT Part A, listed as Cilnidipine 10 mg
[16] = Table A-3 by baseline RCS, first sub-table (RCS <5.0), ITT Part A, listed as Cilnidipine 20 mg
[17] = Table A-3 by baseline RCS, first sub-table (RCS <5.0), ITT Part A, listed as Pooled Cilnidipine

## CN1CC(=O)N2[C@H](c3ccc4c(c3)OCO4)c3[nH]c4ccccc4c3C[C@@H]2C1=O [Tadalafil]
[1]
  Weekly Symptomatic RP Attacks, Min: 7.0
  Weekly Symptomatic RP Attacks, Q1: 7.00
[2]
  Weekly Symptomatic RP Attacks Change from Baseline, Mean (SD): 4.50 (2.121)
  Weekly Symptomatic RP Attacks Change from Baseline, Median: 4.50
  Weekly Symptomatic RP Attacks Change from Baseline, Min: 3.0
  Weekly Symptomatic RP Attacks Change from Baseline, Q1: 3.00
  Weekly Symptomatic RP Attacks Percent Change from Baseline, Max: 75.0%
  Weekly Symptomatic RP Attacks Percent Change from Baseline, Q3: 75.00%
[3]
  Weekly Symptomatic RP Attacks Change from Baseline, Max: 6.0, 6.0
  Weekly Symptomatic RP Attacks Change from Baseline, Q3: 6.00, 6.00
  Weekly Symptomatic RP Attacks Percent Change from Baseline, Min: 50.0, 50.0%
  Weekly Symptomatic RP Attacks Percent Change from Baseline, Q1: 50.00, 50.00%
[4]
  Weekly Symptomatic RP Attacks, Max: 18.0, 18.0
  Weekly Symptomatic RP Attacks, Q3: 18.00, 18.00
[5]
  Weekly Symptomatic RP Attacks Change from Baseline, Max: 6.0
  Weekly Symptomatic RP Attacks Change from Baseline, Min: 3.0
  Weekly Symptomatic RP Attacks Change from Baseline, Q1: 3.00
  Weekly Symptomatic RP Attacks Change from Baseline, Q3: 6.00
  Weekly Symptomatic RP Attacks Percent Change from Baseline, Max: 75.0%
  Weekly Symptomatic RP Attacks Percent Change from Baseline, Min: 50.0%
  Weekly Symptomatic RP Attacks Percent Change from Baseline, Q1: 50.00%
  Weekly Symptomatic RP Attacks Percent Change from Baseline, Q3: 75.00%
  Weekly Symptomatic RP Attacks, Max: 18.0
  Weekly Symptomatic RP Attacks, Min: 7.0
  Weekly Symptomatic RP Attacks, Q1: 7.00
  Weekly Symptomatic RP Attacks, Q3: 18.00

## COCCOC(=O)C1=C(C)NC(C)=C(C(=O)OC/C=C/c2ccccc2)C1c1cccc([N+](=O)[O-])c1 (centres unmarked) [Cilnidipine, 1,4-dihydro-2,6-dimethyl,4-(3-nitrophenyl)-3,5-pyridinedicarboxylic acid 2-methoxyethyl (2 E)-3-phenyl-2-propenyl ester]
Example 3, first 11 patients of Part A, vs baseline
  weekly frequency of Raynaud attacks, direction of change: decrease
[6]
  Weekly Symptomatic RP Attacks, Max: 14.0, 14.0
  Weekly Symptomatic RP Attacks, Mean (SD): 14.00
  Weekly Symptomatic RP Attacks, Min: 14.0, 14.0
  Weekly Symptomatic RP Attacks, Q1: 14.00, 14.00
  Weekly Symptomatic RP Attacks, Q3: 14.00, 14.00
[7]
  Weekly Symptomatic RP Attacks, Max: 11.0
  Weekly Symptomatic RP Attacks, Mean (SD): 8.00 (4.243)
  Weekly Symptomatic RP Attacks, Min: 5.0
  Weekly Symptomatic RP Attacks, Q1: 5.00
  Weekly Symptomatic RP Attacks, Q3: 11.00
[8]
  Weekly Symptomatic RP Attacks, Max: 14.0
  Weekly Symptomatic RP Attacks, Mean (SD): 10.00 (4.583)
  Weekly Symptomatic RP Attacks, Min: 5.0
  Weekly Symptomatic RP Attacks, Q1: 5.00
  Weekly Symptomatic RP Attacks, Q3: 14.00
[2]
  Weekly Symptomatic RP Attacks Percent Change from Baseline, Min: −33.3, −33.3%
[9]
  Weekly Symptomatic RP Attacks Change from Baseline, Max: −7.0, −7.0
  Weekly Symptomatic RP Attacks Change from Baseline, Mean (SD): −7.00
  Weekly Symptomatic RP Attacks Change from Baseline, Min: −7.0, −7.0
  Weekly Symptomatic RP Attacks Change from Baseline, Q1: −7.00, −7.00
  Weekly Symptomatic RP Attacks Change from Baseline, Q3: −7.00, −7.00
  Weekly Symptomatic RP Attacks Percent Change from Baseline, Max: −33.3, −33.3%
[10]
  Weekly Symptomatic RP Attacks Change from Baseline, Max: −2.0
  Weekly Symptomatic RP Attacks Change from Baseline, Mean (SD): −4.50 (3.536)
  Weekly Symptomatic RP Attacks Change from Baseline, Min: −7.0
  Weekly Symptomatic RP Attacks Change from Baseline, Q1: −7.00
  Weekly Symptomatic RP Attacks Change from Baseline, Q3: −2.00
  Weekly Symptomatic RP Attacks Percent Change from Baseline, Max: −28.6%
  Weekly Symptomatic RP Attacks Percent Change from Baseline, Min: −38.9%
[11]
  Weekly Symptomatic RP Attacks Change from Baseline, Max: −2.0
  Weekly Symptomatic RP Attacks Change from Baseline, Min: −7.0
  Weekly Symptomatic RP Attacks Change from Baseline, Q1: −7.00
  Weekly Symptomatic RP Attacks Change from Baseline, Q3: −2.00
  Weekly Symptomatic RP Attacks Percent Change from Baseline, Max: −28.6%
  Weekly Symptomatic RP Attacks Percent Change from Baseline, Min: −38.9%
  Weekly Symptomatic RP Attacks Percent Change from Baseline, Q3: −28.57%
[12]
  Weekly Symptomatic RP Attacks, Max: 14.0, 14.0
  Weekly Symptomatic RP Attacks, Mean (SD): 14.00
  Weekly Symptomatic RP Attacks, Min: 14.0, 14.0
  Weekly Symptomatic RP Attacks, Q1: 14.00, 14.00
  Weekly Symptomatic RP Attacks, Q3: 14.00, 14.00
[13]
  Weekly Symptomatic RP Attacks, Max: 11.0
  Weekly Symptomatic RP Attacks, Mean (SD): 8.00 (4.243)
  Weekly Symptomatic RP Attacks, Min: 5.0
  Weekly Symptomatic RP Attacks, Q1: 5.00
  Weekly Symptomatic RP Attacks, Q3: 11.00
[14]
  Weekly Symptomatic RP Attacks, Max: 14.0
  Weekly Symptomatic RP Attacks, Mean (SD): 10.00 (4.583)
  Weekly Symptomatic RP Attacks, Min: 5.0
  Weekly Symptomatic RP Attacks, Q1: 5.00
  Weekly Symptomatic RP Attacks, Q3: 14.00
Table A-3 by baseline RCS, first sub-table (RCS <5.0), ITT Part A
  Weekly Symptomatic RP Attacks Percent Change from Baseline, Min: −33.3, −33.3%
[15]
  Weekly Symptomatic RP Attacks Change from Baseline, Max: −7.0, −7.0
  Weekly Symptomatic RP Attacks Change from Baseline, Min: −7.0, −7.0
  Weekly Symptomatic RP Attacks Change from Baseline, Q1: −7.00, −7.00
  Weekly Symptomatic RP Attacks Change from Baseline, Q3: −7.00, −7.00
  Weekly Symptomatic RP Attacks Percent Change from Baseline, Max: −33.3, −33.3%
[16]
  Weekly Symptomatic RP Attacks Change from Baseline, Max: −2.0
  Weekly Symptomatic RP Attacks Change from Baseline, Min: −7.0
  Weekly Symptomatic RP Attacks Change from Baseline, Q1: −7.00
  Weekly Symptomatic RP Attacks Change from Baseline, Q3: −2.00
  Weekly Symptomatic RP Attacks Percent Change from Baseline, Max: −28.6%
  Weekly Symptomatic RP Attacks Percent Change from Baseline, Min: −38.9%
  Weekly Symptomatic RP Attacks Percent Change from Baseline, Q3: −28.57%
[17]
  Weekly Symptomatic RP Attacks Change from Baseline, Max: −2.0
  Weekly Symptomatic RP Attacks Change from Baseline, Min: −7.0
  Weekly Symptomatic RP Attacks Change from Baseline, Q1: −7.00
  Weekly Symptomatic RP Attacks Change from Baseline, Q3: −2.00
  Weekly Symptomatic RP Attacks Percent Change from Baseline, Max: −28.6%
  Weekly Symptomatic RP Attacks Percent Change from Baseline, Min: −38.9%
  Weekly Symptomatic RP Attacks Percent Change from Baseline, Q3: −28.57%
